Legend:
immortalized BMDMs = test: TNF-α secretion in immortalized BMDMs (WT or TLR4-KO) incubated with CL or LPS; assay type: cell-based, murine; settings: overnight; for TNF-α secretion: CL alone, immortalized BMDM
Method: Immortalized BMDM were seeded the day before the experiment at 5 × 10^5 cells/mL in 48-well plates (500 μL/well).
After stimulation, supernatants were collected, centrifuged, and assayed for cytokine secretion, while cells were assayed for viability.
TNF-α and IP-10 were quantified in cell supernatants using DuoSet ELISA kits from R&D Systems and human IL-1β using Instant ELISA™ Kit from Invitrogen, according to the manufacturer’s instructions. Absorbance was read with a BioTek Synergy HT Microplate Readers.
Fig. 3 Saturated but not unsaturated CLs have pro-inflammatory properties. a RAW-Blue™ cells were incubated overnight with the indicated amount of CL or LPS, supernatants were collected, and NF-κB activation quantified via Quanti-Blue™ test and reported here as fold induction as compared to control. Unpaired t test: differences with respect to the control (Ctrl) are not significant if p > 0.05 (no symbol); *p ≤ 0.0007. b Immortalized BMDM cells were incubated overnight with the indicated amount of CL or LPS; supernatants were collected and TNF-α quantified via ELISA assay. c, d Primary human monocytes were incubated overnight with the indicated amount of CL or LPS with or without the NLRP3 inhibitor MCC950, supernatants were collected, and TNF-α and IL-1β were quantified via ELISA assay. Graphs are representative of experiments from six different donors. Unpaired t test: differences with respect to the control (Ctrl) are not significant if p > 0.05 (no symbol); *p ≤ 0.021. Each bar represents the mean + standard deviation of three biological replicates (n = 3). Graphs are representative of at least three independent experiments
Fig. 4 Saturated CLs are TLR4 agonists. a HEK293 cells were transfected with plasmids encoding murine TLR4, MD2, and CD14 (mTLR4), human TLR4, MD2, and CD14 (hTLR4) or with empty pcDNA3.1 plasmid, MD2 and CD14 (w/o TLR) together with a luciferase reporter plasmid dependent on NF-κB activation and a constitutively active reporter vector-encoding renilla luciferase. Two days after transfection, cells were incubated for 6 h with medium alone (Ctrl) or the indicated amount of CLs or LPS. Luciferase and renilla were quantified in cell lysate, normalized and reported here as fold induction as compared to control. Unpaired t test: differences compared to the control are not significant if p > 0.05(no symbol); *p ≤ 0.005. b WT and TLR4-KO iBMDM cells were incubated overnight with medium (c), LPS or C14:0 CL. For each condition, mTNF-α was measured by ELISA assay. Unpaired t test: differences with respect to the control are not significant if p > 0.05(no symbol); *p ≤ 0.0001. Each bar represents the mean + standard deviation of three biological replicates (n = 3). Graphs are representative of at least three independent experiments

human TLR4/MD2/CD14 = target: T1, human TLR4/MD2/CD14 (Homo sapiens, UniProt O00206+Q9Y6Y9); test: Inhibition of LPS-induced NF-κB luciferase reporter in HEK293 cells transfected with human TLR4/MD2/CD14; assay type: cell-based; settings: for inhibition of LPS-induced signaling (LPS dose-response, 0 to 1000 ng/mL), mode of action: 1 h CL pre-incubation
T1 construct: expressed in transfected cells; host or cells: HEK293 (ATCC CRL1573), transient transfection with jetPEI
T1 sequence (O00206 24-839): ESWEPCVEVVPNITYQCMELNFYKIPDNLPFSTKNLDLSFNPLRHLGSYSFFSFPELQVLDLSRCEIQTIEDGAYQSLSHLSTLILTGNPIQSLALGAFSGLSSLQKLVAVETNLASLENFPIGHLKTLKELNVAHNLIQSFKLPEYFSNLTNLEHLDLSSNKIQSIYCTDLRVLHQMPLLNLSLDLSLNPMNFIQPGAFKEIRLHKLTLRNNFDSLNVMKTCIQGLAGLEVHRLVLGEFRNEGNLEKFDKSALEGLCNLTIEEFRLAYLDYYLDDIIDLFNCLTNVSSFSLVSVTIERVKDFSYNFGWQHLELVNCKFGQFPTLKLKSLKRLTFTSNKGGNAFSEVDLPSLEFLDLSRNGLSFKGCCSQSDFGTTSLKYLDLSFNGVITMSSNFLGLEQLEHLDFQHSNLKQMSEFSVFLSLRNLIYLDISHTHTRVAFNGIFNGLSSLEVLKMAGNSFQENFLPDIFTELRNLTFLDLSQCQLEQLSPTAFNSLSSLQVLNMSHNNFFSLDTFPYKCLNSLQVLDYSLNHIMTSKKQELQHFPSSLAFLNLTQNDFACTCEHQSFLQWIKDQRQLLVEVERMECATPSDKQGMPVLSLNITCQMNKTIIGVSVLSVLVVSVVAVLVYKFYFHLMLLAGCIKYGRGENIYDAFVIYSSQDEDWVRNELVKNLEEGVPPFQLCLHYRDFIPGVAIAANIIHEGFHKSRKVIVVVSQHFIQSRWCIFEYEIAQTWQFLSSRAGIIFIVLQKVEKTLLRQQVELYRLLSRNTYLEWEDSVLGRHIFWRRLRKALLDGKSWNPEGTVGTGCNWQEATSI
T1 sequence (Q9Y6Y9 19-160): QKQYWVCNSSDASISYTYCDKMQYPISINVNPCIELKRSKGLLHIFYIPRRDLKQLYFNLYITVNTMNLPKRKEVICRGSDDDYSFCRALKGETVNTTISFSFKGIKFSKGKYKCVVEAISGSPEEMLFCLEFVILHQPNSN
Method: Cells were seeded at 4 × 10^4 cells/mL in 96-well plates (200 μL/well) and transiently transfected 4 days later. Expression vectors containing an NF-κB transcription reporter vector-encoding firefly luciferase (10 ng/well pNF-κB-luc from Clontech), and a constitutively active reporter vector-encoding Renilla luciferase (5 ng/well phRG-TK; Promega), together with empty vector (pcDNA3.1 from Invitrogen Cat. N. V79020) and cDNA encoding human membrane CD14 (3 ng/well) and human or murine TLR4 and MD2 (3 ng/well) were mixed with jetPEI (Polyplus transfection Cat.N. 101-10N) and incubated with cells according to the manufacturer’s instructions.
After treatment supernatants were discarded, cells were washed with PBS and lysed with passive lysis buffer (Promega Cat.N. E1941). Luciferase and Renilla activity on cell lysates were quantified on a BioTek Synergy HT microplate reader using home-made luciferase reagent (20 mM Tricine, 2.67 mM MgSO4·7H2O, 0.265 mM (MgCO3)4Mg(OH)2·5H2O, 0.1 mM EDTA, 33.3 mM DTT, 530 μM ATP, 270 μM Acetyl Coenzyme A (Lithium salt), 470 μM luciferin (Biosynth), pH 7.8, diluted two times in water before use), or coelenterazine (Biosynth) dissolved in ethanol at 1 mg/mL and diluted 500 times in PBS before use as previously described. Firefly and Renilla luciferase activity on cell lysates were normalized, and data were expressed as fold induction as compared to unstimulated conditions.
In contrast to C16:0 and C18:0, C14:0 CL acted as an agonist in murine but not human cells (Fig. 3), a property similar to that of the LPS variant lipid IVa. to establish whether C14:0, like lipid IVa, is a weak human TLR4 antagonist, we tested the ability of all saturated CLs to inhibit signaling induced by LPS over a range of concentrations. For each CL, cells transfected with human TLR4/MD2/CD14 were pre-incubated with medium alone or two different CL concentrations for 1 h, and then washed and incubated for 6 h with increasing amounts of LPS (from 0 to 1000 ng/mL). […] The dose–response curve of LPS was shifted to the right.
(§1) Fig. 6 C14:0 is a competitive human TLR4 antagonist. HEK293 cells were transfected with plasmids encoding hTLR4, hMD2, and hCD14 together with a luciferase reporter plasmid dependent on NF-κB activation and a constitutively active reporter vector-encoding renilla luciferase. Two days after transfection, cells were incubated for 1 h with medium alone or the indicated amount of CLs, then washed and incubated 6 h with increasing amount of LPS. Luciferase and renilla were then quantified in cell lysate, and normalized and reported here as fold induction as compared to control. Each bar represents the mean ± standard deviation of three biological replicates (n = 3). Graphs are representative of at least three independent experiments
as §1, with “7 Unsaturated cardiolipins are” for “6 C14:0 is a”, “antagonists.” for “antagonist.”, “CLs, and” for “CLs,”
To quantify and compare the potency of CLs as inhibitors, we determined IC50 values in HEK293 cells transfected with human TLR4/MD2/CD14, for each of the antagonists (Fig. 8 and Table 1). […]

inhibition of LPS-induced signaling (LPS dose-response, 0 to 1000 ng/mL), mode of action (human TLR4/MD2/CD14; washed, 6 h LPS)	inhibition of LPS-induced signaling (LPS dose-response, 0 to 1000 ng/mL), mode of action (human TLR4/MD2/CD14; washed, 6 h LPS, listed as C14:0)	IC50 (human TLR4/MD2/CD14; HEK293 hTLR4/hMD2/hCD14, 1 h CL, washed, 6 h LPS, Prism fit of Fig. 8 data) [µM]	IC50 (human TLR4/MD2/CD14; approx., HEK293 human TLR4/MD2/CD14) [µM]	Structure (SMILES)	TNF-α secretion (immortalized BMDMs)	TNF-α secretion in WT iBMDMs (immortalized BMDMs; wild-type)
did not inhibit	–	–	–	CCCCCCCCCCCCCCCCCC(=O)OC[C@H](COP(=O)(O)OCC(O)COP(=O)(O)OC[C@@H](COC(=O)CCCCCCCCCCCCCCCCC)OC(=O)CCCCCCCCCCCCCCCCC)OC(=O)CCCCCCCCCCCCCCCCC (some centres unmarked) [C18:0 CL]	induced	–
competitive inhibitor	competitive TLR4 antagonists	~325	~300	CCCCCCCCCCCCCC(=O)OC[C@H](COP(=O)(O)OCC(O)COP(=O)(O)OC[C@@H](COC(=O)CCCCCCCCCCCCC)OC(=O)CCCCCCCCCCCCC)OC(=O)CCCCCCCCCCCCC (some centres unmarked) [C14:0 CL]	induced	induced

From PMC6697720, “Saturation of acyl chains converts cardiolipin from an antagonist to an activator of Toll-like receptor-4” (Cellular and Molecular Life Sciences: CMLS, 2019)
